The subject of one assay is neocortical slices. The experiment in a line: Field potential recordings of epileptiform activity in neocortical slices. Type of assay: cell-based, rat. Here is the method:
Brain slices for the in vitro experiments were prepared by means of standard techniques (Ivens et al., 2007; Pavlovsky et al., 2003; Seiffert et al., 2004). Slices were transferred to a recording chamber where they were incubated in aCSF containing BSA (6.7 mg/ml), TGF-β1 (10 ng/ml) or artificial serum (aSerum, composition based on aCSF with the following changes, composition in mM: 0.8 MgSO4, 1.3 CaCl2, 5.7 KCl, 1 L-glutamine, 0.1 albumin). To block the activity of TGF-β1, slices were incubated in aCSF containing SB431542 (10 μM) before the addition of TGF-β1 (10 ng/ml). To block TGF-βRs, slices were incubated in aCSF containing SB431542 (10 μM) and TGF-βRII antibody (10 μg/ml) for 30 min followed by incubation in BSA in the presence of TGF-βR blockers. For detection of epileptiform activity, field potentials were recorded >4 h following incubation in cortical layer IV using extracellular glass microelectrodes (˜3 MΩ) in response to bipolar stimulation at the border of white and grey matter.
To assess the hypothesis that activation of the TGF-β signaling pathway is the mechanism underlying albumin-induced epileptogenesis, we activated this pathway directly by incubating neocortical slices with TGF-β1 (10 ng/mL) in artificial cerebrospinal fluid (aCSF) and performed electrophysiological recordings. These recordings were compared to those of slices treated with a solution containing serum levels of electrolytes and 0.1 mM albumin (aSERUM, previously shown to induce epileptogenesis; Ivens et al., 2007), albumin in aCSF, or aCSF (control). […] When albumin was added to the control aCSF solution, epileptiform activity was recorded in response to stimulation of the white matter (n=8 out of 12 slices, 6 animals). Importantly. TGF-β1 treatment was sufficient to recapitulate epileptiform activity similar to that seen following treatment with aSERUM and albumin in aCSF (n=5 out of 5 slices, 4 animals; n=7 out of 9 slices, 3 animals; and n=8 out of 12 slices, 6 animals, respectively). In all three cases, the evoked epileptiform activity, was all-or-none in nature, paroxysmal and prolonged, similar to that seen following BBB opening with bile salts (Ivens et al., 2007; Seiffert et al., 2004) and typical to that observed in acute models of epilepsy (Gutnick et al., 1982).
To further confirm that the TGF-β1 induced epileptiform activity was dependent on the TGF-βR mediated pathway, we performed additional trials of the above experiments in the presence of two TGF-βR blockers (SB431542, the TGF-βRI kinase activity inhibitor and TGF-βRII antibody).

For the next assay, the target named is T1, TGF-βRII (Rattus norvegicus, UniProt P38438).
T1 construct: brains were isolated from adult Wistar rats, dissected in cold saline solution and lysed in RIPA buffer; from tissue; host or cells: adult Wistar rat brain cortex lysate (RIPA buffer)
T1 sequence (P38438 24-567): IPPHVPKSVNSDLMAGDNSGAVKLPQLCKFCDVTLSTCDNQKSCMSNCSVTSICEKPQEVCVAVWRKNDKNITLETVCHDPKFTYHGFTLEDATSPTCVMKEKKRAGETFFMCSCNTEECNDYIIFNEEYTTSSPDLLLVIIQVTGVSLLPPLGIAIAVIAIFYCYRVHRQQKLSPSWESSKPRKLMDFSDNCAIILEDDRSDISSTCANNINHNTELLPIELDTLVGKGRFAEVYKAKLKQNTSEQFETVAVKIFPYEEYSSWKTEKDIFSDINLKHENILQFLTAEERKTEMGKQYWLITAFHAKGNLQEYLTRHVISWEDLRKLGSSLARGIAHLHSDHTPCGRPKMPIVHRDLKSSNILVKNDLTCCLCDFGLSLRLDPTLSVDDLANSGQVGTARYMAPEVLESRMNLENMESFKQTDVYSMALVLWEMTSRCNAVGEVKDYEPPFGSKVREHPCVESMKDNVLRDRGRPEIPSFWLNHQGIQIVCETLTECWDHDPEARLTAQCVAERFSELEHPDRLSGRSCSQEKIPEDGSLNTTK
Put plainly: Albumin and TGF-βRII co-immunoprecipitation in cortical lysates. The settings on record: cortical lysate pre-incubated with albumin. Type of assay: binding. Here is the method:
To prepare cortical lysates, brains were isolated from adult Wistar rats, dissected in cold saline solution and lysed in RIPA buffer. BSA (3 μg) was added to lysates to approximately match the amount of precipitating anti-albumin antibodies. Immunoprecipitation was performed using the Catch and Release® v2.0 Reversible Immunoprecipitation System (Upstate, Charlottesville, Va.) with the following modifications to the standard protocol: the starting amount of protein was increased to 1,500 μg and the incubation time with precipitating antibodies was increased to 90 minutes. […]
The immunoprecipitated samples were separated with SDS-PAGE and transferred onto a nitrocellulose membrane. […] TGF-βRII was detected with a rabbit anti-TGF-βRII antibody (Upstate) and an AP-conjugated donkey anti-rabbit IgG secondary antibody (Jackson ImmunoResearch Laboratories, West Grove, Pa.). […]
To determine whether albumin binds to TGF-β receptors, co-immunoprecipitation using antibodies against albumin or TGF-βRII was performed on cortical lysate samples treated with albumin. An expected hand corresponding to TGF-βRII was detected in samples immunoprecipitated with the TGF-βRII antibody. More importantly, this band was also detected in samples pre-incubated with albumin when immunoprecipitated with the albumin antibody and probed for TGF-βRII (FIG. 2a). […]

Take “albumin: bovine serum albumin, used to induce epileptogenesis”: the “integral of the field potential” value in the assay with neocortical slices (inducer alone, without TGF-βR blockers) is recorded as 117.2±35.4 mV*ms. For the same substance, the “evoked epileptiform activity in response to stimulation of the white matter, slices showing it” value with neocortical slices (slices incubated with the inducer) is on record as 8 out of 12. For the same substance, the “interaction with TGF-βRII (co-immunoprecipitation)” value in the assay with TGF-βRII is on record as “direct interaction”.

For the origin of these results see US10668049B2, “Methods of treating cognitive decline with transforming growth factor beta inhibitors” (The Regents of the University of California, priority 2008, dated 2020).
